Data from PMC9538944, “In vitro biotransformation assays using fish liver cells: Comparing rainbow trout and carp hepatocytes” (Frontiers in Toxicology, 2022).

Legend:
rainbow trout = assay: In vivo bioconcentration test OECD TG 305, trout; parameters: species or system Oncorhynchus mykiss; conditions: rainbow trout (Oncorhynchus mykiss), in vivo
Description: (§1) In vivo BCF values for MXC and BaP in carp and trout were determined in bioconcentration tests with both species in accordance to OECD TG 305 ([OECD, 2012]). The studies were approved by the State Agency for Nature, Environment and Consumer Protection (LANUV) North Rhine-Westphalia. The fish were exposed to a single concentration of both test items in a flow-through system for 35 days. No control groups were used. Dosing was performed by a solid-phase desorption system which was integrated in the fresh water supply allowing for a constant delivery of test concentrations to the fish chambers. The procedure of column generated concentrations was described in detail by [Schlechtriem et al. (2017)]. For the present study, two packed columns containing each 500 g Florisil® loaded with 200 mg of either MXC or BaP were used for each fish chamber. The uptake (exposure) phase of the study was followed by a 35 days depuration phase in uncontaminated water. The flow-through rate was maintained at 38.6 L/h for carp and 30.1 L/h for trout throughout the test. […] Additional 2-4 fish were sampled each, at the start and at the end of the exposure period, as well as at the end of the depuration period for lipid analysis. The total lipid content of the fish was measured individually by gravimetric analysis according to [Smedes (1999)].
(§2) Water samples (400 ml) were taken from the test chambers at least three times per week. Preparation for chemical analysis was performed by liquid-liquid extraction using n-hexane (10 ml) containing deuterated MXC (35 ng). The purified organic phase was subdivided into two equal parts and evaporated to dryness under a stream of nitrogen. One part of the residue was dissolved in 200 µL DCM for MXC analysis. The other part was mixed with 1 ml ACN: water (8:2, v/v) and subjected to BaP analysis. Whole fish samples were prepared for chemical analysis individually. After grinding the tissue with the addition of dry ice in a Thermomix™ 31 (Vorwerk), the finely powdered homogenate was lyophilized using an AdVantage freeze dryer (Ismatec). Aliquots of the dry samples (0.5 g) were spiked with deuterated internal standards (5 ng MXC-d6 and 0.2 ng BaP-d12) and extracted three times with acetone: DCM (1:1, v/v) (10 ml). The pooled extracts were then extracted with ultra-pure water (45 ml) and mixed with sodium chloride (5 g) to remove acetone and matrix. The organic phase was concentrated (0.5 ml) and dissolved in cyclohexane: DCM (1:1, v/v) (4.2 ml). This was subjected to gel permeation chromatography (GPC) (GILSON system equipped with pump 307, syringe pump 402, GX-271 liquid handler, 508 interface module, and Trilution® LC software; column i. d. 1.5 cm, material Bio-Beads S-X3, 200–400 mesh, Bio-Rad, flow rate 2 ml/min). Eluates containing MXC (26–31 min retention time) and BaP (32–38 min retention time) were evaporated to dryness and dissolved in hexane (1 ml) and toluol (50 µL), respectively. The collected MXC extracts were further concentrated by solid-phase extraction (SPE, Sep-Pak® Vac 12cc, 2 g, silica cartridges, Waters) using DCM: n-hexane (50:50, v/v) as eluent. Eluent and hexane were used to equilibrate and condition the column before sample loading and subsequent washing with DCM: n-hexane (30:70, v/v). The eluate containing MXC was dried down and reconstituted in toluol (0.5 ml).
(§3) MXC in the organic phase of samples from the in vitro incubations and in DCM extracts of water samples from the in vivo bioconcentration tests were analyzed by gas chromatography-mass spectrometry (GC-MS). The GC-MS system consisted of a HP5890 series II GC coupled to a HP5972 mass sensitive detector (Hewlett-Packard). Separations were performed on 5% phenyl polysilphenylene-siloxane capillary columns (BPX-5, 30 m length x 0.25 mm i. d, 0.25 µm df, SGE). […]

[1] = In vivo bioconcentration test OECD TG 305, trout; parameters: species or system Oncorhynchus mykiss; conditions: rainbow trout (Oncorhynchus mykiss)
Description: as §1, §2, §3

[2] = parameters: method as in Fay et al., 2014b; conditions: ref Fay et al., 2014b; cited from earlier work
common carp = assay: In vivo bioconcentration test OECD TG 305, carp; parameters: species or system Cyprinus carpio; conditions: common carp (Cyprinus carpio), in vivo
Description: as §1, §2, §3

[3] = In vivo bioconcentration test OECD TG 305, carp; parameters: species or system Cyprinus carpio; conditions: common carp (Cyprinus carpio)
Description: as §1, §2, §3

[4] = in vivo, Cf data, concentration measured in individual fish

For c1ccc2c(c1)cc1ccc3cccc4ccc2c1c34 [BaP, benzo[a]pyrene], the “Cf,SS concentration in fish at steady-state” value (rainbow trout) was 0.126 µg/kg, the “kB, in vivo estimate Trout” value (rainbow trout) was 0.40 day⁻¹ and the “kB, in vivo estimate, range of 95% probability” value (rainbow trout) was 0.13 to 1.2 day⁻¹. The “kT depuration rate constant” value (rainbow trout) was 0.427 day⁻¹, the “kTG growth corrected depuration rate constant” value (rainbow trout) was 0.401 day⁻¹ and the “BCFSSL lipid-normalized steady-state bioconcentration factor” value (rainbow trout; 35 d) was 42.8 L/kg. For the same compound, the “Cf data, concentration measured in individual fish” value (rainbow trout; 44 d) was 0.002 µg/kg, the concentration at 14 d [1, 4] was 0.079 ng/g and the concentration at 21 d [1, 4] was 0.111 ng/g. It also gave a concentration at 28 d [1, 4] of 0.126 ng/g, a concentration at 35 d [1, 4] of 0.084 ng/g and a concentration at 44 d [1, 4] of 0.004 ng/g. For the same compound, the concentration at 7 d ([1]; in vivo, rainbow trout, day 7 (uptake), read-out: Mean Cf) was 0.107 ng/g, the concentration at 14 d ([1]; in vivo, rainbow trout, day 14 (uptake), read-out: Mean Cf) was 0.07 ng/g and the concentration at 21 d ([1]; in vivo, rainbow trout, day 21 (uptake), read-out: Mean Cf) was 0.141 ng/g. It also gave a concentration at 28 d ([1]; in vivo, rainbow trout, day 28 (uptake), read-out: Mean Cf) of 0.121 ng/g, a concentration at 35 d ([1]; in vivo, rainbow trout, day 35 (end of uptake), read-out: Mean Cf) of 0.116 ng/g and a concentration at 40 d ([1]; in vivo, rainbow trout, day 40 (depuration), read-out: Mean Cf) of 0.011 ng/g. The concentration at 44 d ([1]; in vivo, rainbow trout, day 44 (depuration), read-out: Mean Cf) was 0.003 ng/g, the concentration at 21 d ([1]; whole fish, other: exposure via water in a flow-through system, rainbow trout, day 21 (uptake), BaP background corrected, read-out: Cf data, concentration measured in individual fish) was 0.107 ng/g and the “log KOW” value [2] was 5.99. The “Cf,SS concentration in fish at steady-state” value (common carp) was 0.157 µg/kg, the “kB, in vivo estimate Carp” value (common carp) was 0.48 day⁻¹ and the “kB, in vivo estimate, range of 95% probability” value (common carp) was 0.16–1.4. For the same compound, the “kT depuration rate constant” value (common carp) was 0.493 day⁻¹, the “kTG growth corrected depuration rate constant” value (common carp) was 0.482 day⁻¹ and the “BCFSSL lipid-normalized steady-state bioconcentration factor” value (common carp; 35 d) was 73 L/kg. The concentration at 7 d [3, 4] was 0.204 ng/g, the concentration at 14 d [3, 4] was 0.168 ng/g and the concentration at 21 d [3, 4] was 0.136 ng/g. The concentration at 28 d [3, 4] was 0.13 ng/g, the concentration at 35 d [3, 4] was 0.149 ng/g and the concentration at 7 d ([3]; in vivo, common carp, day 7 (uptake), read-out: Mean Cf) was 0.216 ng/g. For the same compound, the concentration at 14 d ([3]; in vivo, common carp, day 14 (uptake), read-out: Mean Cf) was 0.172 ng/g, the concentration at 21 d ([3]; in vivo, common carp, day 21 (uptake), read-out: Mean Cf) was 0.154 ng/g and the concentration at 28 d ([3]; in vivo, common carp, day 28 (uptake), read-out: Mean Cf) was 0.148 ng/g. The concentration at 35 d ([3]; in vivo, common carp, day 35 (end of uptake), read-out: Mean Cf) was 0.153 ng/g, the concentration at 40 d ([3]; in vivo, common carp, day 40 (depuration), read-out: Mean Cf) was 0.013 ng/g and the concentration at 44 d ([3]; in vivo, common carp, day 44 (depuration), read-out: Mean Cf) was 0.002 ng/g. The concentration at 14 d ([3]; whole fish, other: exposure via water in a flow-through system, common carp, day 14 (uptake), BaP background corrected, read-out: Cf data, concentration measured in individual fish) was 0.141 ng/g.
